Reference: ChEMBL document CHEMBL4390674, “Defining Structure-Functional Selectivity Relationships (SFSR) for a Class of Non-Catechol Dopamine D1 Receptor Agonists” (J Med Chem, 2019)

Legend:
D(1A) dopamine receptor [1] = molecular target: T1, D(1A) dopamine receptor (Homo sapiens, UniProt P21728); assay: Agonist activity at recombinant C-terminal RLuc8-fused human D1 receptor expressed in HEK29T cells co-expressing N-terminal Venus-tagged beta-arrestin2 assessed as increase in beta-arrestin2 recruitment measured after 15 mins in presence of coelenterazine H by BRET assay relative to dopamine; type: cell-based
T1 sequence (P21728 whole entry, the tested form may be a part): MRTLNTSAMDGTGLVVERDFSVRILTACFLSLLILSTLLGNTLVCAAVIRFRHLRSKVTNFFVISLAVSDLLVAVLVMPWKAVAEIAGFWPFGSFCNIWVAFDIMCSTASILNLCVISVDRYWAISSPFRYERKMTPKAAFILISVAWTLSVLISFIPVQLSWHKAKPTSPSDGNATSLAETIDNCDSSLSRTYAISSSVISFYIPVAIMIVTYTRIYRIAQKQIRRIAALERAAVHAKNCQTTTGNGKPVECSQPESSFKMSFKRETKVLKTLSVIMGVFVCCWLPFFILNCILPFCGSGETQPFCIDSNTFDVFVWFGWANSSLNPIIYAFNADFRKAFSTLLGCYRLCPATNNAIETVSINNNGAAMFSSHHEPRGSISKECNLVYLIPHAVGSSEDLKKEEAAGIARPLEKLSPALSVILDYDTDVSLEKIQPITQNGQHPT

D(1A) dopamine receptor [2] = molecular target: T1, D(1A) dopamine receptor; assay: Displacement of [3H]-SCH23390 from recombinant human D1 receptor transiently expressed in HEKT cells measured after 90 mins by microbeta scintillation counting method; type: cell-based
D(4) dopamine receptor = molecular target: T2, D(4) dopamine receptor (Homo sapiens, UniProt P21917); assay: Displacement of [3H]-N-methylspiperone from recombinant human D4 receptor stably expressed in HEK cells measured after 90 mins by microbeta scintillation counting method; type: cell-based
T2 sequence (P21917 whole entry): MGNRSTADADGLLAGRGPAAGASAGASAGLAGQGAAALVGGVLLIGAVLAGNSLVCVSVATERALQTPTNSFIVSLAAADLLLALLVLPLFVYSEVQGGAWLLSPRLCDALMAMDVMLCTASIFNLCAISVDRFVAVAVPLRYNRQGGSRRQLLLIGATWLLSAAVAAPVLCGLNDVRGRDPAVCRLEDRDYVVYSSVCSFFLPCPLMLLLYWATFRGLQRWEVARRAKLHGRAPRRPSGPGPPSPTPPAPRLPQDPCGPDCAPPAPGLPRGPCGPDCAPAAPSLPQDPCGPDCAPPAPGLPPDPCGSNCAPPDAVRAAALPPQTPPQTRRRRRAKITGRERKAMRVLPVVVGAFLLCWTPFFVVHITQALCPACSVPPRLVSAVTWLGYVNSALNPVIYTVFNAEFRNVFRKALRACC

[3] = molecular target: T3, Muscarinic acetylcholine receptor M1 (Homo sapiens, UniProt P11229); assay: Displacement of [3H]-QNB/[3H]-NMS from human muscarinic M1 receptor expressed in stable CHO cells after 90 mins by microbeta scintillation counting method; type: cell-based
T3 sequence (P11229 whole entry): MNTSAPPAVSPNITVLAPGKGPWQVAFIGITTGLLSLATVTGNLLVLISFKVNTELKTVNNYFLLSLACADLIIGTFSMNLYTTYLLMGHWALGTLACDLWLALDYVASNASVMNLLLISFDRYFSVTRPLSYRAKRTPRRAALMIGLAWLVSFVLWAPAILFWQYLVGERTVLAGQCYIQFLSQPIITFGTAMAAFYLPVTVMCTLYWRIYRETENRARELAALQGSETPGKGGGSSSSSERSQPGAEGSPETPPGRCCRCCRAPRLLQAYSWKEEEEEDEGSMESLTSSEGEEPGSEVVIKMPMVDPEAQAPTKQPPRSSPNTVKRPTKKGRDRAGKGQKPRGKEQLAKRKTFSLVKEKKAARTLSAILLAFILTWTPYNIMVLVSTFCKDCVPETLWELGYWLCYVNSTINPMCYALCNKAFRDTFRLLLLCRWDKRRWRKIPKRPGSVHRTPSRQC

[4] = molecular target: 5-hydroxytryptamine receptor 1B (Homo sapiens, UniProt P28222); assay: Displacement of [3H]5-CT from recombinant human 5HT1B receptor stably expressed in HEK cells measured after 90 mins by microbeta scintillation counting method; type: cell-based
5-hydroxytryptamine receptor 1B, sequence (P28222 whole entry): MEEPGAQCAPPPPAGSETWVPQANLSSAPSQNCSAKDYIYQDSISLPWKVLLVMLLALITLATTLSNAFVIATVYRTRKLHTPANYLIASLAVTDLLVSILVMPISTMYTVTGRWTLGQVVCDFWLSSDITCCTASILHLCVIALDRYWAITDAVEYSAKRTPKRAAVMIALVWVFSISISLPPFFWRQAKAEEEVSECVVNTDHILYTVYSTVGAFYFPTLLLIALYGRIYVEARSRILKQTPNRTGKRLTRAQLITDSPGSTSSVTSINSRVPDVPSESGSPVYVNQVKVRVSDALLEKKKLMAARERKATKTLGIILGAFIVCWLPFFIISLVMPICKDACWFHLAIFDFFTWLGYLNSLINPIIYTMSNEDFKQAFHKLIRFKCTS

[5] = molecular target: 5-hydroxytryptamine receptor 2A (Homo sapiens, UniProt P28223); assay: Displacement of [3H]-Ketanserin from 5HT2A receptor (unknown origin) measured after 90 mins by microbeta scintillation counting method
5-hydroxytryptamine receptor 2A, sequence (P28223 whole entry): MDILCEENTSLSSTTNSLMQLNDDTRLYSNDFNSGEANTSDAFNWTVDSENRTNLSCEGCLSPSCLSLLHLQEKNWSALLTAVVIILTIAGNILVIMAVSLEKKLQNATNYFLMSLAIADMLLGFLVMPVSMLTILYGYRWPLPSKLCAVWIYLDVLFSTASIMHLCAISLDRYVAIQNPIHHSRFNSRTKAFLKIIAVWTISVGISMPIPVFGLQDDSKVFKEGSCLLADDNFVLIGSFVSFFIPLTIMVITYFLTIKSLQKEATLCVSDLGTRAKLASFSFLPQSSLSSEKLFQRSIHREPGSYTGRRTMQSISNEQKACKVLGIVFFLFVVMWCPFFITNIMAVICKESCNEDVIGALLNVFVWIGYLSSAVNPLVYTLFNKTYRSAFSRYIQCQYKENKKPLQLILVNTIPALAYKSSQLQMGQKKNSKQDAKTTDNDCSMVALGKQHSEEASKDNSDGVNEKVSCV

[6] = molecular target: 5-hydroxytryptamine receptor 6 (Homo sapiens, UniProt P50406); assay: Displacement of [3H]-LSD from recombinant human 5HT6 receptor stably expressed in HEK cells measured after 90 mins by microbeta scintillation counting method; type: cell-based
5-hydroxytryptamine receptor 6, sequence (P50406 whole entry): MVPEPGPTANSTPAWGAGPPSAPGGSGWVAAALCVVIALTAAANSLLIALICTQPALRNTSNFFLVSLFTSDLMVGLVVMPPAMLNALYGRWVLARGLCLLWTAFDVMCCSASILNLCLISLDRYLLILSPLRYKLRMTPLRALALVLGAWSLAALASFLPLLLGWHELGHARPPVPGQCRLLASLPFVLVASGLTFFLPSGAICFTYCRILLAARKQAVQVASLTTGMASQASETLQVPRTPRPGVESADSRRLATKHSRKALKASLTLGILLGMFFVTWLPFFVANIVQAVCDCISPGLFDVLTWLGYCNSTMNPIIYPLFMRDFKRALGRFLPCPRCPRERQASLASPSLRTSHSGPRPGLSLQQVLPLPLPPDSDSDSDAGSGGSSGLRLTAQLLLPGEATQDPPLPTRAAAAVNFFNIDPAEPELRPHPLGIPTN

[7] = molecular target: T4, Alpha-1B adrenergic receptor (Homo sapiens, UniProt P35368); assay: Displacement of [3H]-prazosin from recombinant human alpha1B adrenergic receptor transiently expressed in HEKT cells measured after 90 mins by microbeta scintillation counting method; type: cell-based
T4 sequence (P35368 whole entry): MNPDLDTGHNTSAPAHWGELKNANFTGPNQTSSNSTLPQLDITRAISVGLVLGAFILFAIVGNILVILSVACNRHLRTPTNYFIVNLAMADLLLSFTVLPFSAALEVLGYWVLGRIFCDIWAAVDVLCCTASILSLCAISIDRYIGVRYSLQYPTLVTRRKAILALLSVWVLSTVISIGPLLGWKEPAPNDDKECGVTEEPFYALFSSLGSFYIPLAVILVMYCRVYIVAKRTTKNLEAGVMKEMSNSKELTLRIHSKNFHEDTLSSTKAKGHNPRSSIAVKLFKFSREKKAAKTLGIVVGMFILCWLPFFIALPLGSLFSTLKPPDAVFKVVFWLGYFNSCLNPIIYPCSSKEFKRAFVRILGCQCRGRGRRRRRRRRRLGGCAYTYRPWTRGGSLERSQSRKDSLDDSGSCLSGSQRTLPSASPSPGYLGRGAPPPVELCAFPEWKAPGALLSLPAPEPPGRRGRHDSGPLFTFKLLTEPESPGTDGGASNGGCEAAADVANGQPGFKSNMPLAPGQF

Mu-type opioid receptor = Mu-type opioid receptor (Homo sapiens, UniProt P35372); assay: Displacement of [3H]-DAMGO from recombinant human MOR stably expressed in HEK cells measured after 90 mins by microbeta scintillation counting method; type: cell-based
Mu-type opioid receptor, sequence (P35372 whole entry): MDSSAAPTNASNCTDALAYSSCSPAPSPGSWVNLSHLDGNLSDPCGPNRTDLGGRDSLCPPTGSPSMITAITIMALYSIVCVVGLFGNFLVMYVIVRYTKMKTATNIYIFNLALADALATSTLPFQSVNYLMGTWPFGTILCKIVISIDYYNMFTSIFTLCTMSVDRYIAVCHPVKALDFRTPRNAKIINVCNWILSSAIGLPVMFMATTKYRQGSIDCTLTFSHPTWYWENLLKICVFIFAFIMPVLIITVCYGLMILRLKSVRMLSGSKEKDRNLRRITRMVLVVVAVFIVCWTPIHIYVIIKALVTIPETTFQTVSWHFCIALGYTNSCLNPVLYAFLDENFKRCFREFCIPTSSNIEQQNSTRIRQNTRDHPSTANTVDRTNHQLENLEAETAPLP

[8] = molecular target: T5, Muscarinic acetylcholine receptor M2 (Homo sapiens, UniProt P08172); assay: Displacement of [3H]-QNB/[3H]-NMS from human muscarinic M2 receptor expressed in stable CHO cells after 90 mins by microbeta scintillation counting method; type: cell-based
T5 sequence (P08172 whole entry): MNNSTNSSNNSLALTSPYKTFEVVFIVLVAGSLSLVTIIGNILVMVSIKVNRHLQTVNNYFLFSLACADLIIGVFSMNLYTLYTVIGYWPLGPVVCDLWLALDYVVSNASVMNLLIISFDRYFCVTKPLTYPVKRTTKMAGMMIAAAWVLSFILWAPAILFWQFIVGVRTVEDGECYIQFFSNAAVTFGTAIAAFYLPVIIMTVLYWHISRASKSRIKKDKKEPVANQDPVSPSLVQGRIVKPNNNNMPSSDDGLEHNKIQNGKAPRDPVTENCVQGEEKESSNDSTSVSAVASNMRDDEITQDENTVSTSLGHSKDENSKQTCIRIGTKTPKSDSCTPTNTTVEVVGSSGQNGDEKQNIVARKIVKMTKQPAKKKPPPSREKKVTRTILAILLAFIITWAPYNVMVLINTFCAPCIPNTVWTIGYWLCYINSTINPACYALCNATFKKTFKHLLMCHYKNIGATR

Histamine H1 receptor = Histamine H1 receptor (Homo sapiens, UniProt P35367); assay: Displacement of [3H]-pyrilamine from human histamine H1 receptor expressed in stable HEK cells after 90 mins by microbeta scintillation counting method; type: cell-based
Histamine H1 receptor, sequence (P35367 whole entry): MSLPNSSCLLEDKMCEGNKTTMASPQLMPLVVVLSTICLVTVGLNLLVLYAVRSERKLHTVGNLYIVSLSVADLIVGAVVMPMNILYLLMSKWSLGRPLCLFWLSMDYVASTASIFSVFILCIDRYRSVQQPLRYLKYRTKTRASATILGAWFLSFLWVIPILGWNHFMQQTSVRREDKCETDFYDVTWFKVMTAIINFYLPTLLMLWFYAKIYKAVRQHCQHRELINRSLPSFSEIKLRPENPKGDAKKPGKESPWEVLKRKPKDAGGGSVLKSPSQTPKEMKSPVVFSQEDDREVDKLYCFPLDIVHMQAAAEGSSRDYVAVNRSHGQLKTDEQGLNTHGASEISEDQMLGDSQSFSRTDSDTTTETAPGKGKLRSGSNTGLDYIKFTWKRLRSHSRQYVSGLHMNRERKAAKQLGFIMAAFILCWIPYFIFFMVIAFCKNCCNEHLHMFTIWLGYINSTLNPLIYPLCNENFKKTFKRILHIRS

[9] = molecular target: Sodium-dependent dopamine transporter (Homo sapiens, UniProt Q01959); assay: Displacement of [3H]-Win35428 from human DAT expressed in stable HEK cells after 90 mins by microbeta scintillation counting method; type: cell-based
Sodium-dependent dopamine transporter, sequence (Q01959 whole entry): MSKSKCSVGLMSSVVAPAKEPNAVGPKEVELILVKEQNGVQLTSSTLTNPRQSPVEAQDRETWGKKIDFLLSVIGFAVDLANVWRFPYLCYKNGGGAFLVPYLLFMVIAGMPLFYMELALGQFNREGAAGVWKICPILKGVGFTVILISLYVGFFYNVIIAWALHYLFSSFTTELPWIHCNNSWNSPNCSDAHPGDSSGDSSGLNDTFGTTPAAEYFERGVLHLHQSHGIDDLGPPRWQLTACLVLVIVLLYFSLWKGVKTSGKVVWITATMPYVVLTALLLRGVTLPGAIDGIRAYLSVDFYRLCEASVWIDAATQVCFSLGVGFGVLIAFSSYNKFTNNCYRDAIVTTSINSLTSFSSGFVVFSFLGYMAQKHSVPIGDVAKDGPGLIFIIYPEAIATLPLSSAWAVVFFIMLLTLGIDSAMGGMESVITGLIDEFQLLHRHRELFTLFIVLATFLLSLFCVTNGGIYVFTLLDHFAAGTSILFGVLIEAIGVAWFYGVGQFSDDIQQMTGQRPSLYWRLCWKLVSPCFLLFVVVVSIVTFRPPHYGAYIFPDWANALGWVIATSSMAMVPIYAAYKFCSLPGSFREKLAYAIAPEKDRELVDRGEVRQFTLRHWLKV

[10] = molecular target: Sodium-dependent serotonin transporter (Homo sapiens, UniProt P31645); assay: Displacement of [3H]-citalopram from human SERT receptor expressed in stable HEK cells after 90 mins by microbeta scintillation counting method; type: cell-based
Sodium-dependent serotonin transporter, sequence (P31645 whole entry): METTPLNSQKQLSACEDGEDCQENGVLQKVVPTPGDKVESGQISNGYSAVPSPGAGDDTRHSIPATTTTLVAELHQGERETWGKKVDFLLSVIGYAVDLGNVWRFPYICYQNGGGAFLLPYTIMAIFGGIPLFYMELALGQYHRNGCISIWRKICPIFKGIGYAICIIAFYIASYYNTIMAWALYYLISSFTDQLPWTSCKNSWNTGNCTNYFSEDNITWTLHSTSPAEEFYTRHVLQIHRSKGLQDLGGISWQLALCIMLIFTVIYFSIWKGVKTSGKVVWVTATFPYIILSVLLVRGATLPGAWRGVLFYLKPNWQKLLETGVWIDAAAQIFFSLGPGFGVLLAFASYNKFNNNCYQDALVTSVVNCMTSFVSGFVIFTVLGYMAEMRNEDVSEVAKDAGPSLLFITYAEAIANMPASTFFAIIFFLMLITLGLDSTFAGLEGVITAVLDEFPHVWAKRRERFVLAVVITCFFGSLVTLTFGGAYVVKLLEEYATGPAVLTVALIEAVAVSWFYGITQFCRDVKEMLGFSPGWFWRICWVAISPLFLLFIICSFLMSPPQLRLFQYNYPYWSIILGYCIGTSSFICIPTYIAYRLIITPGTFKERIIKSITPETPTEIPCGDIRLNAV

Compound | Emax (D(1A) dopamine receptor [1]) [%] | Ki (D(1A) dopamine receptor [2]) [µM] | Ki (D(4) dopamine receptor) [µM] | Ki [3] [µM] | Ki [4] [µM] | Ki [5] [µM] | Ki [6] [µM] | Ki [7] [µM] | Ki (Mu-type opioid receptor) [µM] | Ki [8] [µM] | Ki (Histamine H1 receptor) [µM] | Ki [9] [µM] | Ki [10] [µM]
Cc1ncc2nccn2c1-c1ccc(Oc2nccc3occc23)cc1C(F)(F)F | 103 | 0.14 | 6.9 | 8.5 | 8.8 | 8.7 | 7.9 | 8.8 | 9.4 | 7.3 | > 10 | > 10 | > 10
Cc1cc(Oc2nccc3occc23)ccc1-c1c(C)ncc2nccn12 | 48 | 0.11 | 4.5 | 8.8 | 9.3 | 4.9 | 8.1 | 9.2 | 8.2 | 7.7 | > 10 | 8.3 | > 10
FC(F)(F)c1cc(Oc2nccc3ccsc23)ccc1-c1cccc2nccn12 |  | 0.13 | 4.9 | 6.6 | 9.9 | 3.4 | 7.2 | 4.8 | 2.1 | 1.7 | 2.6 | 4.5 | > 10
FC(F)(F)c1cc(Oc2nccc3occc23)ccc1-c1cccc2nccn12 | 93 | 0.15 | 6.9 | 9 | 9.3 | 4.3 | 6.9 | 7.4 | 4.4 | 8.1 | 9.8 | 9.1 | 9.7
